Reference: patent US6914045B2, “Glycopeptide antibiotics” (Wyeth Holdings Corporation, priority 2001, dated 2005)
In brackets after ≈: the same amount, converted by molar mass.

Assays:
Experiment in all cases: in vitro antibacterial evaluation, MIC by broth dilution
Type in all cases: cell-based
[1] = test system: Enterococcus sp.; conditions: broth dilution, 18 hours at 35° C.
Procedure: (§1) Methods for in vitro Antibacterial Evaluation (Table 1)
(§2) The minimum inhibitory concentration (MIC), the lowest concentration of the antibiotic which inhibits growth of the test organism, is determined by the broth dilution method using Muller-Hinton II […] (Baltimore Biological Laboratories) following the recommendations of the National Committee for Clinical Laboratory Standards [Methods for dilution antimicrobial susceptibility tests for bacteria that grow aerobically, approved standard M7-A2, National Committee for Clinical Laboratory Standards, Villanova, Pa.].
(§3) An inoculum level of 5×10^5 CFU/mL, and a range of antibiotic concentrations (64-0.06 μg/mL) is used. […] The test organisms include a spectrum of Gram-positive bacteria comprised of Staphylococcus sp., Streptococcus sp. and Enterococcus sp. These organisms include recent clinical isolates that are resistant to methicillin, penicillin and/or vancomycin.

[2] = test system: Staphylococcus sp.; conditions: broth dilution, 18 hours at 35° C.
Procedure: as §1, §2, §3

[3] = test system: Streptococcus sp.; conditions: broth dilution, 18 hours at 35° C.
Procedure: as §1, §2, §3

[4] = test system: Escherichia coli; conditions: 18 hours at 35° C.
Procedure, shortened: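 MIC is the lowest antibiotic concentration (tested 64-0.06 μg/mL) preventing growth of a 5×10^5 CFU/mL inoculum. Determined by broth dilution in Mueller-Hinton II medium following NCCLS standard M7-A2.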

MIC Enterococcus avium (GC 4558) ([1]; Enterococcus avium (GC 4558)): 128 µg/mL (≈ 130 µM) | MIC Enterococcus faecalis (ATCC 29212) ([1]; Enterococcus faecalis (ATCC 29212)): >128 µg/mL | MIC Enterococcus faecalis (GC 4552) ([1]; Enterococcus faecalis (GC 4552)): >128 µg/mL | MIC Enterococcus faecalis (GC 4553) ([1]; Enterococcus faecalis (GC 4553)): >128 µg/mL | MIC Enterococcus faecalis (GC 4554) ([1]; Enterococcus faecalis (GC 4554)): >128 µg/mL | MIC Enterococcus faecalis (GC 6189) ([1]; Enterococcus faecalis (GC 6189)): >128 µg/mL | MIC Enterococcus faecium (GC 2243) ([1]; Enterococcus faecium (GC 2243)): >128 µg/mL | MIC Enterococcus faecium (GC 4556) ([1]; Enterococcus faecium (GC 4556)): >128 µg/mL | MIC Enterococcus faecium (GC 4557) ([1]; Enterococcus faecium (GC 4557)): 128 µg/mL (≈ 130 µM) | MIC Enterococcus avium (GC 4558) [1]: 128 µg/mL (≈ 130 µM) | MIC Enterococcus faecalis (ATCC 29212) [1]: >128 µg/mL | MIC Enterococcus faecalis (GC 2242) [1]: >128 µg/mL | MIC Enterococcus faecalis (GC 2691) [1]: >128 µg/mL | MIC Enterococcus faecalis (GC 3059) [1]: >128 µg/mL | MIC Enterococcus faecalis (GC 4552) [1]: >128 µg/mL | MIC Enterococcus faecalis (GC 4553) [1]: >128 µg/mL | MIC Enterococcus faecalis (GC 4554) [1]: >128 µg/mL | MIC Enterococcus faecalis (GC 6189) [1]: >128 µg/mL | MIC Enterococcus faecium (GC 2243) [1]: >128 µg/mL | MIC Enterococcus faecium (GC 4556) [1]: >128 µg/mL | MIC Enterococcus faecium (GC 4557) [1]: 128 µg/mL (≈ 130 µM) | MIC Enterococcus faecalis (GC 2242) ([1]; strain GC 2242): >128 µg/mL | MIC Enterococcus faecalis (GC 2691) ([1]; strain GC 2691): >128 µg/mL | MIC Enterococcus faecalis (GC 3059) ([1]; strain GC 3059): >128 µg/mL | MIC Staphylococcus aureus (ATCC 29213) ([2]; strain ATCC 29213): >128 µg/mL | MIC Staphylococcus aureus (GC 1131) ([2]; strain GC 1131): >128 µg/mL | MIC Staphylococcus aureus (GC 3051) ([2]; strain GC 3051): >128 µg/mL | MIC Staphylococcus aureus (GC 3053) ([2]; strain GC 3053): >128 µg/mL | MIC Staphylococcus aureus (GC 4541) ([2]; strain GC 4541): >128 µg/mL | MIC Staphylococcus aureus (GC 4542) ([2]; strain GC 4542): >128 µg/mL | MIC Staphylococcus aureus-SMITH (GC 4543) ([2]; strain GC 4543): >128 µg/mL | MIC Staphylococcus aureus (GC 4544) ([2]; strain GC 4544): >128 µg/mL | MIC Staphylococcus aureus (GC 4545) ([2]; strain GC 4545): >128 µg/mL | MIC Coagulase Negative Staphylococcus (GC 4547) ([2]; strain GC 4547): 128 µg/mL (≈ 130 µM) | MIC Coagulase Negative Staphylococcus (GC 4548) ([2]; strain GC 4548): >128 µg/mL | MIC Coagulase Negative Staphylococcus (GC 4549) ([2]; strain GC 4549): >128 µg/mL | MIC Coagulase Negative Staphylococcus (GC 4551) ([2]; strain GC 4551): >128 µg/mL | MIC Streptococcus agalactiae (GC 4564) [3]: >128 µg/mL | MIC Streptococcus pneumoniae (ATCC 6301) [3]: >128 µg/mL | MIC Streptococcus pneumoniae (GC 1894) [3]: 128 µg/mL (≈ 130 µM) | MIC Streptococcus pneumoniae (GC 4565) [3]: >128 µg/mL | MIC Streptococcus pyogenes (GC 4563) [3]: >128 µg/mL | MIC Streptococcus pneumoniae (ATCC 6301) ([3]; strain ATCC 6301): >128 µg/mL | MIC Streptococcus pneumoniae (GC 1894) ([3]; strain GC 1894): 128 µg/mL (≈ 130 µM) | MIC Streptococcus pyogenes (GC 4563) ([3]; strain GC 4563): >128 µg/mL | MIC Streptococcus agalactiae (GC 4564) ([3]; strain GC 4564): >128 µg/mL | MIC Streptococcus pneumoniae (GC 4565) ([3]; strain GC 4565): >128 µg/mL | MIC Escherichia coli (ATCC 25922) [4]: >128 µg/mL | MIC Escherichia coli (GC 4559) [4]: >128 µg/mL | MIC Escherichia coli (GC 4560) [4]: >128 µg/mL
SMILES: CC(C1CCCCC1)C1NC(=O)CNC(=O)C(CO)NC(=O)C(C(O)C2CNC(=N)N2C2OC(CO)C(O)C(O)C2O)NC(=O)C(C(O)C2CNC(=N)N2)NC(=O)C(C[C@H]2CC[C@H](O)CC2)NC1=O (stereo partly drawn) [Example 54a, Cyclo[3-(anti-4-hydroxycyclohexyl)alanyl-3-(2-iminoimidazolidin-4-yl)seoyl-3-(3-hexopyranosyl-2-iminoimidazolidin-4-yl)serylserylglycyl-3-cyclohexyl-2-aminobutanoyl]]
MIC Staphylococcus haemolyticus (GC 4546) ([2]; strain GC 4546): 128 µg/mL (≈ 130 µM)
